From ChEMBL document CHEMBL1140667, “Pyrrolidino-tetrahydroisoquinolines bearing pendant heterocycles as potent dual H3 antagonist and serotonin transporter inhibitors” (Bioorg Med Chem Lett, 2007)

Experiments:
Histamine H3 receptor [1] = molecular target: T1, Histamine H3 receptor (Homo sapiens, UniProt Q9Y5N1); assay: Binding affinity to human histamine H3 receptor
Histamine H3 receptor [2] = molecular target: T1, Histamine H3 receptor; assay: Antagonist activity at human histamine H3 receptor; format: functional; settings: read-out: pA2 (converted)
[3] = Mean residence time in mouse plasma at 10 mg/kg, ip; format: ADME, organism-based; design: dose 10 mg/kg, route intraperitoneal
[4] = molecular target: Kappa-type opioid receptor (Homo sapiens, UniProt P41145); assay: Binding affinity to kappa opioid receptor
[5] = Drug level in mouse brain at 10 mg/kg, ip after 2 hrs; format: ADME, organism-based; design: dose 10 mg/kg, route intraperitoneal; settings: read-out: Drug uptake
Rattus norvegicus [6] = assay: Increase in 5-hydroxytryptamine level in rat brain at 3 mg/kg, sc within 4 hrs relative to basal level; format: ADME, organism-based; design: dose 3 mg/kg, route subcutaneous; settings: in vivo
[7] = Ratio of log AUC in brain to plasma in mouse at 10 mg/kg, ip; format: ADME, organism-based; design: dose 10 mg/kg, route intraperitoneal; settings: brain and plasma, read-out: BPR
[8] = Mean residence time in mouse brain at 10 mg/kg, ip; format: ADME, organism-based; design: dose 10 mg/kg, route intraperitoneal
Rattus norvegicus [9] = assay: Increase in dopamine level in rat brain at 3 mg/kg, sc within 4 hrs relative to basal level; format: ADME, organism-based; design: dose 3 mg/kg, route subcutaneous; settings: in vivo
[10] = molecular target: Sodium-dependent dopamine transporter (Homo sapiens, UniProt Q01959); assay: Binding affinity to DAT
[11] = molecular target: Sodium-dependent noradrenaline transporter (Homo sapiens, UniProt P23975); assay: Binding affinity to NET
[12] = Plasma concentration in mouse at 10 mg/kg, ip after 15 mins; format: ADME, organism-based; design: dose 10 mg/kg, route intraperitoneal

T1 sequence (Q9Y5N1 whole entry): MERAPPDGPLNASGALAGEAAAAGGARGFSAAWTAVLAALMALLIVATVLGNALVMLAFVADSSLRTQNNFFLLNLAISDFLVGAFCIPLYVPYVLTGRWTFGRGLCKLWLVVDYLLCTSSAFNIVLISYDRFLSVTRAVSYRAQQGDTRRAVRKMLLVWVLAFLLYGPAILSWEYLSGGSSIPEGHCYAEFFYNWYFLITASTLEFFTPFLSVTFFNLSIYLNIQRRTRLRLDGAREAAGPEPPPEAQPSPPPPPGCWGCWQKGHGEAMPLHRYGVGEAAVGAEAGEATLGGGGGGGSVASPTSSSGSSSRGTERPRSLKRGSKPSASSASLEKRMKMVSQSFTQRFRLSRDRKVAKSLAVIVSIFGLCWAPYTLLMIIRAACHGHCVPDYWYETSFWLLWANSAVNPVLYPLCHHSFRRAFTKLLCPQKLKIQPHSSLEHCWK
Sequence of Sodium-dependent dopamine transporter (Q01959 whole entry): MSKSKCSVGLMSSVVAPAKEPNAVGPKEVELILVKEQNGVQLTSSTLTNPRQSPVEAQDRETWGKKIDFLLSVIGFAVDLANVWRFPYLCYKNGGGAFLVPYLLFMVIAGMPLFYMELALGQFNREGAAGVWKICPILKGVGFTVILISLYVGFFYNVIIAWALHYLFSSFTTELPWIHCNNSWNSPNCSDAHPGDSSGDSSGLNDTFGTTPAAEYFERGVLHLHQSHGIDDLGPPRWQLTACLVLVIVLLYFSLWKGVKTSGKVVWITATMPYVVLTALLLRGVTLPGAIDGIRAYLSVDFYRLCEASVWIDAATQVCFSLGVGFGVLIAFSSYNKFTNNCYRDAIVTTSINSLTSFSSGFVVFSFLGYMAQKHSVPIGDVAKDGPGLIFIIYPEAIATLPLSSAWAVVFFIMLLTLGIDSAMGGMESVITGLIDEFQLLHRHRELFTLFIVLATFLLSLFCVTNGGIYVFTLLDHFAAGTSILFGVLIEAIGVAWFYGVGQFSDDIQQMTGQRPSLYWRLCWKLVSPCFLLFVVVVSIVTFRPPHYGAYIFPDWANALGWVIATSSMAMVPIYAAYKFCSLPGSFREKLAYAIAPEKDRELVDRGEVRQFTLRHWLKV
Sequence of Kappa-type opioid receptor (P41145 whole entry): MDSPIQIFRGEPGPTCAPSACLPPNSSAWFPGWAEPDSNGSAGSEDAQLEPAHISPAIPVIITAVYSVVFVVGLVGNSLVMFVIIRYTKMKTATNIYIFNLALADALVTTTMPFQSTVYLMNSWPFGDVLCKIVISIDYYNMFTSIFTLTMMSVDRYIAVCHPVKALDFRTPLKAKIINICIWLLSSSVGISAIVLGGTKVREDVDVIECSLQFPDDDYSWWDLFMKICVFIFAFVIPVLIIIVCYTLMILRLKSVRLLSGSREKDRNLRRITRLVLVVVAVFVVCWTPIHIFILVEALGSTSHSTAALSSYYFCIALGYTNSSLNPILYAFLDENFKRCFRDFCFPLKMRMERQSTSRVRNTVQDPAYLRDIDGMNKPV
Sequence of Sodium-dependent noradrenaline transporter (P23975 whole entry): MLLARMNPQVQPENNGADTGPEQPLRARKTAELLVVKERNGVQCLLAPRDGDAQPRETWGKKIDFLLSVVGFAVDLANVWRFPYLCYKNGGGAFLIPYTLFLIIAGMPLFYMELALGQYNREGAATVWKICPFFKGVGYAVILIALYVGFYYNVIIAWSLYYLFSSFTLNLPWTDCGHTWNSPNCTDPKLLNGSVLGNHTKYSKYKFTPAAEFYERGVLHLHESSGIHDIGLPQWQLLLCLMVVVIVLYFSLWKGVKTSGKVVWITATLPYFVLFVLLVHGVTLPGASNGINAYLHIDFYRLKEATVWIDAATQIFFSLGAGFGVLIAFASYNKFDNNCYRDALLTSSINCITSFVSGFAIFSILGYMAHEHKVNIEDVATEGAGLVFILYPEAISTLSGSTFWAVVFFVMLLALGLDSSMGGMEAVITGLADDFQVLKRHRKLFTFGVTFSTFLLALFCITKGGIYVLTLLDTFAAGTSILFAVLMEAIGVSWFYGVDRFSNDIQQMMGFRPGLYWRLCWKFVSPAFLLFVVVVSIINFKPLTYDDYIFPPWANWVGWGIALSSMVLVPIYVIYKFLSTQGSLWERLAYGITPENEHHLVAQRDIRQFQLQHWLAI

| SMILES | Ki (Histamine H3 receptor [1]) [nM] | Kb (Histamine H3 receptor [2]) [nM] | also measured |
| --- | --- | --- | --- |
| c1ccn2c([C@@H]3CN4CCC[C@@H]4c4cc(OCCCN5CCOCC5)ccc43)cnc2c1 | 2 | 3.16 | – |
| c1cn(-c2ccc([C@@H]3CN4CCC[C@@H]4c4cc(OCCCN5CCOCC5)ccc43)cc2)cn1 | 5.7 | 3.16 | – |
| c1ncc([C@@H]2CN3CCC[C@@H]3c3cc(OCCCN4CCOCC4)ccc32)s1 | 3.7 | 3.16 | – |
| c1ccc([C@@H]2CN3CCC[C@@H]3c3cc(OCCCN4CCOCC4)ccc32)nc1 | 2.7 | 3.16 | – |
| c1ccc([C@@H]2CN3CCC[C@@H]3c3cc(OCCCN4CCCCC4)ccc32)nc1 | 0.8 | 3.16 | – |
| c1cc([C@@H]2CN3CCC[C@@H]3c3cc(OCCCN4CCOCC4)ccc32)[nH]n1 | 4 | 3.16 | – |
| c1cnc([C@@H]2CN3CCC[C@@H]3c3cc(OCCCN4CCOCC4)ccc32)cn1 | 4 | 3.16 | – |
| c1cc([C@@H]2CN3CCC[C@@H]3c3cc(OCCCN4CCOCC4)ccc32)cs1 | 3 | 3.16 | – |

Continued by falling Ki (Histamine H3 receptor [1]), values first:

| Ki (Histamine H3 receptor [1]) [nM] | Kb (Histamine H3 receptor [2]) [nM] | SMILES | also measured |
| --- | --- | --- | --- |
| 5.3 | 3.16 | c1cnn(-c2ccc([C@@H]3CN4CCC[C@@H]4c4cc(OCCCN5CCOCC5)ccc43)cc2)c1 | – |
| 3.3 | 3.16 | c1csc([C@@H]2CN3CCC[C@@H]3c3cc(OCCCN4CCOCC4)ccc32)n1 | – |
| 1.6 | 3.16 | c1cncc([C@@H]2CN3CCC[C@@H]3c3cc(OCCCN4CCOCC4)ccc32)c1 | – |
| 1 | 3.16 | c1cc([C@@H]2CN3CCC[C@@H]3c3cc(OCCCN4CCCCC4)ccc32)ccn1 | – |
| 0.8 | 3.16 | c1cncc([C@@H]2CN3CCC[C@@H]3c3cc(OCCCN4CCCCC4)ccc32)c1 | MRT [3]: 6.57 h; Ki [4]: 74 nM; concentration at 2 h [5]: 920 nM; Activity (Rattus norvegicus [6]): 300%; Kp [7]: 0.75; MRT [8]: 31.3 h; Activity (Rattus norvegicus [9]): 500%; Ki [10]: 107 nM; Ki [11]: 460 nM; concentration at 0.25 h [12]: 1430 nM |
